Our source for the EC50 and IC50 values is patent US20260226073A1 (AURIGENE ONCOLOGY LIMITED, priority 2023, published 2026).

In assay [1] the test system is NFAT signaling pathway in Jurkat NFAT reporter cells. The experiment in a line: Jurkat NFAT reporter assay. Format: cell-based. The following applies: Homo sapiens, 30 min with compound, then soluble anti-human CD3/CD28 antibody for 6 hours, luciferase readout, read-out: EC50 (Group). As to the method:
A human T lymphocyte Jurkat reporter cell line was further used to assess activation of the nuclear factor of activated T-cells (NFAT) signaling pathway by Cbl-b inhibitors. The reporter cell line is a genetically engineered Jurkat T cell line that expresses a luciferase reporter driven by an NFAT-response element (NFAT-RE). The Cbl-b inhibitor was incubated with 1×10^5 Jurkat NFAT reporter cells per well for 30 minutes. Subsequently, cells were stimulated with soluble anti-human CD3/CD28 antibody for 6 hours resulting in NFAT-RE-mediated luminescence. The bioluminescent signal is detected and quantified using Bio-Glo™ Luciferase Assay System. Readouts were reported as fold change over baseline. Here, baseline was the measurement obtained from Jurkat NFAT reporter cells stimulated with anti-CD3 antibody and anti-CD28 antibody, where the cells were not incubated with a Cbl-b inhibitor.

In assay [2] the target is T1, human recombinant CBL-b (human Biotin CBL-b recombinant protein a.a. 39-426) (Homo sapiens, UniProt Q13191).
T1 construct: human Biotin CBL-b recombinant protein a.a; 39-426; Biotin (biotinylated); made in house
The experiment in a line: Biochemical assay for CBL-b inhibition (ligand displacement TR-FRET). Format: binding. To be noted: 50 nM CBL-b, 0.3 μM Bodipy FL-Probe, read-out: IC50 (CBL-b inhibition, group). In short, it runs like this: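 Biotinylated CBL-b (a.a. 39-426, 50 nM final) pre-incubated with compound 60 min at RT in HEPES/NaCl/Triton/BSA/TCEP buffer, then Bodipy FL probe (0.3 μM final) 60 min, then terbium-streptavidin 60 min. TR-FRET read at 665/615 nm; IC50 and % max inhibition from sigmoidal fits.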

pEC50, pIC50: −log10 of the molar value.

T1 sequence (Q13191 39-426): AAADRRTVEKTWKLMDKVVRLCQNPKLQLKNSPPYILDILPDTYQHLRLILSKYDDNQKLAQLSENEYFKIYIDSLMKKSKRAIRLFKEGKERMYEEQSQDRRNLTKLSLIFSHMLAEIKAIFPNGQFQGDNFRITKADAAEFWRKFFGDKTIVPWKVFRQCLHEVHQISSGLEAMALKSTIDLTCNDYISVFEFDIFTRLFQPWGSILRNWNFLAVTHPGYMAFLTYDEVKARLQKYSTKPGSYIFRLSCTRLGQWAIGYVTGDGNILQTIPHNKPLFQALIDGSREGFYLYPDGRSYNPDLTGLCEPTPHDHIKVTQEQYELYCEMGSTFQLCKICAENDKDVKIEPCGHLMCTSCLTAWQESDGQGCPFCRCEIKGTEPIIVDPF

On to `C[C@H]1CCCN(Cc2cc(N3CCCCC3)cc(N3Cc4ccc(C5(Cc6nncn6C)COC5)cc4C3=O)c2)C1` [Compound 14, (S)-6-(3-((4-Methyl-4H-1,2,4-triazol-3-yl)methyl)oxetan-3-yl)-2-(3-((3-methyl-piperidin-1-yl)methyl)-5-(piperidin-1-yl)phenyl)isoindolin-1-one], for which the pEC50 in assay [1] is 5.00 to 6.00. Moreover, the pIC50 in assay [2] was 5.30 to 6.52.
For the compound `CC(C)c1cc(CN2CCC[C@H](C)C2)cc(N2Cc3ccc(C4(Cc5nncn5C)COC4)cc3C2=O)c1` [Compound 15, (S)-2-(3-Isopropyl-5-((3-methylpiperidin-1-yl)methyl)phenyl)-6-(3-((4-methyl-4H-1,2,4-triazol-3-yl)methyl)oxetan-3-yl)isoindolin-1-one], the negative-log EC50 (pEC50) in assay [1] was 6.00 to 6.52. The negative logarithm of the IC50 (pIC50) in assay [2] is 6.52 to 7.10.
The matching figures for `C[C@H]1CCCN(Cc2cc(N3Cc4ccc(C5(Cc6nncn6C)COC5)cc4C3=O)cc(C(C)(C)C)c2)C1` [Compound 16, (S)-2-(3-(tert-Butyl)-5-((3-methylpiperidin-1-yl)methyl)phenyl)-6-(3-((4-methyl-4H-1,2,4-triazol-3-yl)methyl)oxetan-3-yl)isoindolin-1-one]: 6.00 to 6.52 and 6.52 to 7.10.
The matching figures for `C[C@H]1CCCN(Cc2cc(N3Cc4ccc(C5(Cc6nncn6C)COC5)cc4C3=O)cc(C(F)(F)F)n2)C1` [Compound 17, (S)-6-(3-((4-Methyl-4H-1,2,4-triazol-3-yl)methyl)oxetan-3-yl)-2-(2-((3-methyl-piperidin-1-yl)methyl)-6-(trifluoromethyl)pyridin-4-yl)isoindolin-1-one]: 5.00 to 6.00 and 5.30 to 6.52.
On to `Cc1cc(CNCC2CC2)cc(N2Cc3ccc(C4(Cc5nncn5C)COC4)cc3C2=O)c1` [Compound 18, 2-(3-(((Cyclopropylmethyl)amino)methyl)-5-methylphenyl)-6-(3-((4-methyl-4H-1,2,4-triazol-3-yl)methyl)oxetan-3-yl)isoindolin-1-one], for which the negative-log EC50 (pEC50) in assay [1] is 5.00 to 6.00. For the same compound, the negative logarithm of the IC50 (pIC50) in assay [2] was greater than 7.10.
`Cc1cc(CNCCC(F)(F)F)cc(N2Cc3ccc(C4(Cc5nncn5C)COC4)cc3C2=O)c1` [Compound 19, 6-(3-((4-Methyl-4H-1,2,4-triazol-3-yl)methyl)oxetan-3-yl)-2-(3-methyl-5-(((3,3,3-trifluoropropyl)amino)methyl)phenyl)isoindolin-1-one]: the negative logarithm of the EC50 (pEC50) in assay [1] is 6.00 to 6.52. Further, the pIC50 in assay [2] is greater than 7.10.
Consider `Cc1cc(CNCC2CC2(F)F)cc(N2Cc3ccc(C4(Cc5nncn5C)COC4)cc3C2=O)c1` (stereo not drawn) [Compound 20, 2-(3-((((2,2-Difluorocyclopropyl)methyl)amino)methyl)-5-methylphenyl)-6-(3-((4-methyl-4H-1,2,4-triazol-3-yl)methyl)oxetan-3-yl)isoindolin-1-one], for which the negative logarithm of the EC50 (pEC50) in assay [1] is 6.00 to 6.52. Moreover, in assay [2], the pIC50 was 6.52 to 7.10.
As for `Cc1cc(N2Cc3ccc(C4(Cc5nncn5C)COC4)cc3C2=O)cc(CN2CCC[C@H](C)C2)n1` [Compound 23, (S)-6-(3-((4-Methyl-4H-1,2,4-triazol-3-yl)methyl)oxetan-3-yl)-2-(2-methyl-6-((3-methylpiperidin-1-yl)methyl)pyridin-4-yl)isoindolin-1-one], in assay [1], the pEC50 is 5.00 to 6.00. Moreover, in assay [2], the negative-log IC50 (pIC50) was 6.52 to 7.10.
The matching figures for `Cc1cc(CN2CCC[C@H](C)C2)cc(N2Cc3ccc(C4(Cc5nncn5C)COC4)cc3C2=O)n1` [Compound 26, (S)-2-(6-Methyl-4-((3-methylpiperidin-1-yl)methyl)pyridin-2-yl)-6-(3-((4-methyl-4H-1,2,4-triazol-3-yl)methyl)oxetan-3-yl)isoindolin-1-one]: greater than 6.52 and greater than 7.10.
The matching figures for `Cn1cnnc1CC1(c2ccc3c(c2)C(=O)N(c2cc(CN4CCC[C@H](C(F)(F)F)C4)cc(C(F)(F)F)n2)C3)COC1` [Compound 27, (S)-6-(3-((4-Methyl-4H-1,2,4-triazol-3-yl)methyl)oxetan-3-yl)-2-(6-(trifluoro-methyl)-4-((3-(trifluoromethyl)piperidin-1-yl)methyl)pyridin-2-yl)isoindolin-1-one]: greater than 6.52 and greater than 7.10.
With `CC1CN(Cc2cc(N3Cc4ccc(C5(Cc6nncn6C)COC5)cc4C3=O)nc(C(F)(F)F)c2)CCC1(F)F` (stereo not drawn) [Compound 28, 2-(4-((4,4-Difluoro-3-methylpiperidin-1-yl)methyl)-6-(trifluoromethyl)pyridin-2-yl)-6-(3-((4-methyl-4H-1,2,4-triazol-3-yl)methyl)oxetan-3-yl)isoindolin-1-one], the negative-log EC50 (pEC50) in assay [1] is 6.00 to 6.52. Moreover, the negative-log IC50 (pIC50) in assay [2] was 6.52 to 7.10.
For `Cn1cnnc1CC1(c2ccc3c(c2)C(=O)N(c2cc(CN4CCCC(C#N)C4)cc(C(F)(F)F)n2)C3)COC1` (stereo not drawn) [Compound 29, 1-((2-(6-(3-((4-Methyl-4H-1,2,4-triazol-3-yl)methyl)oxetan-3-yl)-1-oxoisoindo-lin-2-yl)-6-(trifluoromethyl)pyridin-4-yl)methyl)piperidine-3-carbonitrile], the pEC50 in assay [1] was 5.00 to 6.00. In addition, the pIC50 in assay [2] is 6.52 to 7.10.
On the same counts, the results for `Cn1cnnc1CC1(c2ccc3c(c2)C(=O)N(c2cc(CN4CCC[C@H](O)C4)cc(C(F)(F)F)n2)C3)COC1` [Compound 30, (S)-2-(4-((3-Hydroxypiperidin-1-yl)methyl)-6-(trifluoromethyl)pyridin-2-yl)-6-(3-((4-methyl-4H-1,2,4-triazol-3-yl)methyl)oxetan-3-yl)isoindolin-1-one] are 5.00 to 6.00 and 5.30 to 6.52.
`Cn1cnnc1CC1(c2ccc3c(c2)C(=O)N(c2cc(CN4CCc5ccccc5C4)cc(C(F)(F)F)n2)C3)COC1` [Compound 31, 2-(4-((3,4-Dihydroisoquinolin-2(1H)-yl)methyl)-6-(trifluoromethyl)pyridin-2-yl)-6-(3-((4-methyl-4H-1,2,4-triazol-3-yl)methyl)oxetan-3-yl)isoindolin-1-one]: the pEC50 in assay [1] was 5.00 to 6.00. For the same compound, the pIC50 in assay [2] is 5.30 to 6.52.
For the compound `Cn1cnnc1CC1(c2ccc3c(c2)C(=O)N(c2cc(CN4CCCC(F)C4)cc(C(F)(F)F)n2)C3)COC1` (stereo not drawn) [Compound 33, 2-(4-((3-Fluoropiperidin-1-yl)methyl)-6-(trifluoromethyl)pyridin-2-yl)-6-(3-((4-methyl-4H-1,2,4-triazol-3-yl)methyl)oxetan-3-yl)isoindolin-1-one], the pEC50 in assay [1] is 5.00 to 6.00. Further, the pIC50 in assay [2] is 5.30 to 6.52.
The matching figures for `C[C@H]1CCN(Cc2cc(N3Cc4ccc(C5(Cc6nncn6C)COC5)cc4C3=O)nc(C(F)(F)F)c2)C1` [Compound 34, (S)-6-(3-((4-Methyl-4H-1,2,4-triazol-3-yl)methyl)oxetan-3-yl)-2-(4-((3-methyl-pyrrolidin-1-yl)methyl)-6-(trifluoromethyl)pyridin-2-yl)isoindolin-1-one]: 6.00 to 6.52 and 6.52 to 7.10.
The matching figures for `Cn1cnnc1CC1(c2ccc3c(c2)C(=O)N(c2cc(CN4CCCC(CO)C4)cc(C(F)(F)F)n2)C3)COC1` (stereo not drawn) [Compound 37, 2-(4-((3-(Hydroxymethyl)piperidin-1-yl)methyl)-6-(trifluoromethyl)pyridin-2-yl)-6-(3-((4-methyl-4H-1,2,4-triazol-3-yl)methyl)oxetan-3-yl)isoindolin-1-one]: 5.00 to 6.00 and 6.52 to 7.10.
`C[C@H]1C[C@H](C)CN(Cc2cc(N3Cc4ccc(C5(Cc6nncn6C)COC5)cc4C3=O)nc(C(F)(F)F)c2)C1` [Compound 42, 2-(4-(((3S,5S)-3,5-Dimethylpiperidin-1-yl)methyl)-6-(trifluoromethyl)pyridin-2-yl)-6-(3-((4-methyl-4H-1,2,4-triazol-3-yl)methyl)oxetan-3-yl)isoindolin-1-one]: in assay [1], the pEC50 is 6.00 to 6.52. Besides, the negative logarithm of the IC50 (pIC50) in assay [2] is greater than 7.10.
Consider `Cn1cnnc1CC1(c2ccc3c(c2)C(=O)N(c2cc(CN4CCC5(CC4)CC5)cc(C(F)(F)F)n2)C3)COC1` [Compound 44, 2-(4-((6-Azaspiro[2.5]octan-6-yl)methyl)-6-(trifluoromethyl)pyridin-2-yl)-6-(3-((4-methyl-4H-1,2,4-triazol-3-yl)methyl)oxetan-3-yl)isoindolin-1-one], for which the pEC50 in assay [1] is 6.00 to 6.52. In addition, the negative logarithm of the IC50 (pIC50) in assay [2] was 6.52 to 7.10.
On the same counts, the results for `CC1CCCCN1Cc1cc(N2Cc3ccc(C4(Cc5nncn5C)COC4)cc3C2=O)nc(C(F)(F)F)c1` (stereo not drawn) [Compound 45, 6-(3-((4-Methyl-4H-1,2,4-triazol-3-yl)methyl)oxetan-3-yl)-2-(4-((2-methyl-piperidin-1-yl)methyl)-6-(trifluoromethyl)pyridin-2-yl)isoindolin-1-one] are 5.00 to 6.00 and 5.30 to 6.52.
For `C[C@@H]1CN(Cc2cc(N3Cc4ccc(C5(Cc6nncn6C)COC5)cc4C3=O)nc(C(F)(F)F)c2)CCO1` [Compound 46, (R)-6-(3-((4-Methyl-4H-1,2,4-triazol-3-yl)methyl)oxetan-3-yl)-2-(4-((2-methyl-morpholino)methyl)-6-(trifluoromethyl)pyridin-2-yl)isoindolin-1-one], the pEC50 in assay [1] is 5.00 to 6.00. Also, the negative-log IC50 (pIC50) in assay [2] is 5.30 to 6.52.
